Source: patent US20260356819A1, “OXOISOINDOLINYL-SUBSTITUTED […] DERIVATIVE AND USE THEREOF” (GLUETACS THERAPEUTICS (SHANGHAI) CO., LTD., priority 2023, published 2026)

Experiments:
Assay type in all cases: cell-based
Settings in all cases: compounds at 50 nM and 500 nM
[1] = target: T1, WEE1 (Homo sapiens, UniProt P30291+Q96SW2); assay: Western blot degradation of WEE1 in hPBMCs (24 h)
T1 construct: The supernatant was aspirated as the extracted total cell protein; endogenous in cells; host or cells: human peripheral blood mononuclear cells (hPBMCs)
Experimental: (§1) Conventional Western blot assay was performed to evaluate the effects of the compounds of the present disclosure on the expression of target proteins in cells. • (1) Cell Seeding and Protein Harvesting: Human peripheral blood mononuclear cells (hPBMCs) at a density of 1×10^6 cells/mL were thawed according to the PBMC Recovery Protocol (Milecell Biotechnologies Inc, Shanghai). The cells were then treated with the compounds of the present disclosure (including the compounds listed in Table 1, and the Examples 1-498 compounds) at concentrations of 50 nM and 500 nM. Controls included a negative control (DMSO) and a positive control (the commercial immunomodulatory drug lenalidomide), both processed following the identical experimental protocol as the compounds of the present disclosure. After 24 hours of compounds treatment, cells were harvested and lysed in RIPA protein lysate containing protease inhibitors on ice for 30 min, followed by centrifugation. The supernatant was aspirated as the extracted total cell protein. The protein concentration of the supernatant was determined using the conventional BCA (Bicinchoninic Acid) assay. • (2) To the collected supernatant, 5×SDS sample loading buffer was added, followed by denaturation at 95 °C for 5 minutes. The denatured samples were then separated by SDS-PAGE electrophoresis on a polyacrylamide gel. Proteins were transferred to a nitrocellulose membrane (0.45 μm NC membrane), blocked with blocking buffer at room temperature for 1 hour, and subjected to antibody incubation and development procedures according to the antibody manufacturer's instructions (Cell Signaling Technology).
(§2) Half-Maximal Degradation Concentration value (the drug concentration required for degrading proteins by 50%, abbreviated as DC50) reads method: comparing the grayscale values of Western blot bands from drug-treated samples with those from blank DMSO-treated controls, and identifying the drug concentration range at which the grayscale value is half that of the DMSO-treated control bands.
(§3) DC50 values can be calculated using ImageJ software to measure grayscale values of Western blot bands from drug-treated samples. The concentration-response curve is fitted to estimate the drug concentration corresponding to half the grayscale value.
(§4) Target protein remaining (%) refers to the percentage of target protein remaining in cells after treatment with protein degrader compounds.
(§5) Calculation method for target protein remaining (%): Use ImageJ software to measure grayscale values of Western blot bands from drug (protein degrader)-treated samples. The grayscale value of drug-treated bands is divided by that of internal control protein bands, and the resulting quotient is normalized to obtain the relative percentage of remaining target protein after protein degrader treatment.
(§6) Target protein degradation rate (%)=1−target protein remaining (%).

[2] = target: T2, IKZF1 (Homo sapiens, UniProt Q13422+Q96SW2); assay: Western blot degradation of IKZF1 in hPBMCs (24 h)
T2 construct: The supernatant was aspirated as the extracted total cell protein; endogenous in cells; host or cells: human peripheral blood mononuclear cells (hPBMCs)
Experimental: as §1, §2, §3, §4, §5, §6

[3] = target: T3, IKZF2 (Homo sapiens, UniProt Q96SW2+Q9UKS7); assay: Western blot degradation of IKZF2 in hPBMCs (24 h)
T3 construct: The supernatant was aspirated as the extracted total cell protein; endogenous in cells; host or cells: human peripheral blood mononuclear cells (hPBMCs)
Experimental: as §1, §2, §3, §4, §5, §6

[4] = target: T4, IKZF3 (Homo sapiens, UniProt Q96SW2+Q9UKT9); assay: Western blot degradation of IKZF3 in hPBMCs (24 h)
T4 construct: The supernatant was aspirated as the extracted total cell protein; endogenous in cells; host or cells: human peripheral blood mononuclear cells (hPBMCs)
Experimental: as §1, §2, §3, §4, §5, §6

[5] = target: T5, CK1α (Homo sapiens, UniProt P48729+Q96SW2); assay: Western blot degradation of CK1α in hPBMCs (24 h)
T5 construct: The supernatant was aspirated as the extracted total cell protein; endogenous in cells; host or cells: human peripheral blood mononuclear cells (hPBMCs)
Experimental: as §1, §2, §3, §4, §5, §6

[6] = target: T6, GSPT1 (Homo sapiens, UniProt P15170+Q96SW2); assay: Western blot degradation of GSPT1 in hPBMCs (24 h)
T6 construct: The supernatant was aspirated as the extracted total cell protein; endogenous in cells; host or cells: human peripheral blood mononuclear cells (hPBMCs)
Experimental: as §1, §2, §3, §4, §5, §6

T5 sequence (P48729 whole entry): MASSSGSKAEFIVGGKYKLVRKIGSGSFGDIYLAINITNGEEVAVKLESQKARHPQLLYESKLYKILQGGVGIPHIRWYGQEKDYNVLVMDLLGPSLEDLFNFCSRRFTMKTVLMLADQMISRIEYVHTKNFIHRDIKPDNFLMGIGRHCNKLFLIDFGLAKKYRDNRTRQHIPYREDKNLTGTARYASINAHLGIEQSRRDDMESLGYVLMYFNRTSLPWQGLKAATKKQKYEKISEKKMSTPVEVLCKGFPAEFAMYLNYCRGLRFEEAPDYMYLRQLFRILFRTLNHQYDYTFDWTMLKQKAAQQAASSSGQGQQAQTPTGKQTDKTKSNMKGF
T5 sequence (Q96SW2 whole entry): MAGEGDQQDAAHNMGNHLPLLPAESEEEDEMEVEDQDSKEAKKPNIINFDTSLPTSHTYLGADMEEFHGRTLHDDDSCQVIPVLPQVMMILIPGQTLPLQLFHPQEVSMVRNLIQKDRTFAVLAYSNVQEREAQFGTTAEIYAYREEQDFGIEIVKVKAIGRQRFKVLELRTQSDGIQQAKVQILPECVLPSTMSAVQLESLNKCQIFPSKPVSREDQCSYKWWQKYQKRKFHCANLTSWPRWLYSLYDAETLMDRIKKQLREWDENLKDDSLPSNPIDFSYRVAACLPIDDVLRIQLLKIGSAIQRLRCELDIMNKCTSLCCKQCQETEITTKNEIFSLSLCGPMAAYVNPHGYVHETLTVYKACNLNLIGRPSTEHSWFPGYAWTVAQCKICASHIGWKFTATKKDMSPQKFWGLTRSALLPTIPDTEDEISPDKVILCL
T5 sequence (Q16531 whole entry partner): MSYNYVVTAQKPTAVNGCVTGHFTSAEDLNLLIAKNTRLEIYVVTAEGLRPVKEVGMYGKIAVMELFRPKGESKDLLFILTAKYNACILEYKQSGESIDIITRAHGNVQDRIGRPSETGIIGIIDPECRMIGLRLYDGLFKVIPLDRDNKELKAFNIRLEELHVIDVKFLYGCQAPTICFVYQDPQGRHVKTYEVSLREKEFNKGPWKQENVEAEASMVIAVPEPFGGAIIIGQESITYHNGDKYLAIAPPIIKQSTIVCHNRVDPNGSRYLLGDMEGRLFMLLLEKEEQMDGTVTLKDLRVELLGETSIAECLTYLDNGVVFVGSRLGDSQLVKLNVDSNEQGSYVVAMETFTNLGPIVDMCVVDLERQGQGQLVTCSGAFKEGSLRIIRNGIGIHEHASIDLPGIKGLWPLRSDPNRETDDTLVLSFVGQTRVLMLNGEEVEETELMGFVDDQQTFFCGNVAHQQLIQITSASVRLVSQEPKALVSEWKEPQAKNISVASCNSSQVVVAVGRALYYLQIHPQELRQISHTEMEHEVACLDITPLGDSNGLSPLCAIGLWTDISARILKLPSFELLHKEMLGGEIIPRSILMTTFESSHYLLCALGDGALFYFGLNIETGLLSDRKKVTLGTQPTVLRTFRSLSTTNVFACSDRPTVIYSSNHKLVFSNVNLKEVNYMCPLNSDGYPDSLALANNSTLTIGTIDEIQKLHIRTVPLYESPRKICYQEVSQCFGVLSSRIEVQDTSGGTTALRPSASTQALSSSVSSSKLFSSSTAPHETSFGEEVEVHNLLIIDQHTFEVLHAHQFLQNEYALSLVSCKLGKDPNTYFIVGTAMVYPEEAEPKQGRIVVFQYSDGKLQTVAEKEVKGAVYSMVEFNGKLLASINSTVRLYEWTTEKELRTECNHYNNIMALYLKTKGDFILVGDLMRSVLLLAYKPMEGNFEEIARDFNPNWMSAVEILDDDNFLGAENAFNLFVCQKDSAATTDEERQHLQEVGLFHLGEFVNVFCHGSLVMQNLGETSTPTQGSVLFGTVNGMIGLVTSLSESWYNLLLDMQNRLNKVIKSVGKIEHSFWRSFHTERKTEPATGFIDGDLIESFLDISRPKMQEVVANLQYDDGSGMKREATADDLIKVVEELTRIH
T6 sequence (P15170 whole entry): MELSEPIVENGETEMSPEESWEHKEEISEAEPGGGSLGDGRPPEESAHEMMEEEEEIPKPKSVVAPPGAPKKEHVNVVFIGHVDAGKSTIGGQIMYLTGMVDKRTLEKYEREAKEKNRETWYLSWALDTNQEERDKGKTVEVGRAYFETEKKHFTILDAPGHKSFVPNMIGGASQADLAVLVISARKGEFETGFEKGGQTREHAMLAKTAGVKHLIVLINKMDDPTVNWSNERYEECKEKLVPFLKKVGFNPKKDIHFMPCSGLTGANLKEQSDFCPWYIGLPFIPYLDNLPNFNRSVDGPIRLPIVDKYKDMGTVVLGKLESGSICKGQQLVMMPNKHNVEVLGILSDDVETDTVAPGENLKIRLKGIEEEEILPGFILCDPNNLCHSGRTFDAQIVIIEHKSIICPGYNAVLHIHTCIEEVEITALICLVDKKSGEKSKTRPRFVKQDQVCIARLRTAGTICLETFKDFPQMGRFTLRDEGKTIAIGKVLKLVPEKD
T6 sequence (Q96SW2 whole entry): as the sequence (Q96SW2 whole entry) above
T6 sequence (Q16531 whole entry partner): as the sequence (Q16531 whole entry partner) above
T4 sequence (Q9UKT9 whole entry): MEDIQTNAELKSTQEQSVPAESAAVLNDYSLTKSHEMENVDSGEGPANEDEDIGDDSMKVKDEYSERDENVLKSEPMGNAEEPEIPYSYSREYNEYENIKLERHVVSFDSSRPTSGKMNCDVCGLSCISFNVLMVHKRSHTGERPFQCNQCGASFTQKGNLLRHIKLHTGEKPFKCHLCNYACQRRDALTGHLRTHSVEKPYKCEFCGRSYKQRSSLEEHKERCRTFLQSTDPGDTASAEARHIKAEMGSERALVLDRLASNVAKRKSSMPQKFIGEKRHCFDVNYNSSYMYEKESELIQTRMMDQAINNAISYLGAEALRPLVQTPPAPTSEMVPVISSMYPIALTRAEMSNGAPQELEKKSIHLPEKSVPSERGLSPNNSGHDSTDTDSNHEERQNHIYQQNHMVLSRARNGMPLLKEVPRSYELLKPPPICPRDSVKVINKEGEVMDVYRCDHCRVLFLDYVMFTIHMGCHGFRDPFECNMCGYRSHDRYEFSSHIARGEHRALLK
T4 sequence (Q96SW2 whole entry): as the sequence (Q96SW2 whole entry) above
T4 sequence (Q16531 whole entry partner): as the sequence (Q16531 whole entry partner) above
T3 sequence (Q9UKS7 whole entry): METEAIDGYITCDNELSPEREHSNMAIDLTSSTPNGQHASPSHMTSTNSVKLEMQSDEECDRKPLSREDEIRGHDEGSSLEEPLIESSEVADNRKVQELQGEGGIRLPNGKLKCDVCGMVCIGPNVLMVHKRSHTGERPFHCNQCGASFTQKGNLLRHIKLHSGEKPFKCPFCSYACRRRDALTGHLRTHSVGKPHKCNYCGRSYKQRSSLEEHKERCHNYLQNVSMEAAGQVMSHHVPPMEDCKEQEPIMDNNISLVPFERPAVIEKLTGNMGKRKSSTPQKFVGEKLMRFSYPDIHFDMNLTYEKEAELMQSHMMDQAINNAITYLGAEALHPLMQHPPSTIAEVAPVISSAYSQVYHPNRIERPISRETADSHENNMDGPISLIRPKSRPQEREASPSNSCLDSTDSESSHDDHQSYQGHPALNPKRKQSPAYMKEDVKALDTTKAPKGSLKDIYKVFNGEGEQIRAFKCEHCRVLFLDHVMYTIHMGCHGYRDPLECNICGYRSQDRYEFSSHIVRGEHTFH
T3 sequence (Q96SW2 whole entry): as the sequence (Q96SW2 whole entry) above
T3 sequence (Q16531 whole entry partner): as the sequence (Q16531 whole entry partner) above
T2 sequence (Q13422 whole entry): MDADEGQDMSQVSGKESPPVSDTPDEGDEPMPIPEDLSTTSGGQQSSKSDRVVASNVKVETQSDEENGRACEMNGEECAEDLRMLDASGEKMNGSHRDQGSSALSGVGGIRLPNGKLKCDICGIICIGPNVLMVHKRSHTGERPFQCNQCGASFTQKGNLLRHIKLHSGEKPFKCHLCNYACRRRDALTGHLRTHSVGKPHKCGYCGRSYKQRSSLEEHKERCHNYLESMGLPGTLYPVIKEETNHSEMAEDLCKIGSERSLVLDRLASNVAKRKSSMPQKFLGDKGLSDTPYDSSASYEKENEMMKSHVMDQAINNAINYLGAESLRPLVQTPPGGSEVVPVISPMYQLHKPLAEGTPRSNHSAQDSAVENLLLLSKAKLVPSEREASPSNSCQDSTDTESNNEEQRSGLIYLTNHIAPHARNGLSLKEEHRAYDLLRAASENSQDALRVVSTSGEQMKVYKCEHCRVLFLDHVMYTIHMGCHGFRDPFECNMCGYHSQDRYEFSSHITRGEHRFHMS
T2 sequence (Q96SW2 whole entry): as the sequence (Q96SW2 whole entry) above
T2 sequence (Q16531 whole entry partner): as the sequence (Q16531 whole entry partner) above

Compound	WEE1 substrate protein remaining % [1]	IKZF1 substrate protein remaining % [2]	IKZF2 substrate protein remaining % [3]	IKZF3 substrate protein remaining % [4]	CK1α substrate protein remaining % [5]	GSPT1 substrate protein remaining % [6]
O=C1CCN(N2Cc3cc(CN4C[C@@H]5C[C@H]4CN5C(c4ccccc4)c4ccccc4)ccc3C2=O)C(=O)N1 [GT-04938, 1-(5-(((1S,4S)-5-benzhydryl-2,5-diazabicyclo[2.2.1]heptan-2-yl)methyl)-1-oxoisoindolin-2-yl)dihydropyrimidine-2,4(1H,3H)-dione]	A (0% ≤ substrate protein remaining % ≤80%)	B (80%< substrate protein remaining % ≤100%)	A (0% ≤ substrate protein remaining % ≤80%)	B (80%< substrate protein remaining % ≤100%)	B (80%< substrate protein remaining % ≤100%)	A (0% ≤ substrate protein remaining % ≤80%)
O=C1CCN(N2Cc3cc(CN4CCN(c5cccs5)CC4)ccc3C2=O)C(=O)N1 [GT-05073, 1-(1-oxo-5-((4-(thiophen-2-yl)piperazin-1-yl)methyl)isoindolin-2-yl)dihydropyrimidine-2,4(1H,3H)-dione]	B (80%< substrate protein remaining % ≤100%)	B (80%< substrate protein remaining % ≤100%)	B (80%< substrate protein remaining % ≤100%)	A (0% ≤ substrate protein remaining % ≤80%)	B (80%< substrate protein remaining % ≤100%)	B (80%< substrate protein remaining % ≤100%)
Cc1ccc(N2CCN(Cc3ccc4c(c3)CN(N3CCC(=O)NC3=O)C4=O)CC2)s1 [GT-05083, 1-(5-((4-(5-methylthiophen-2-yl)piperazin-1-yl)methyl)-1-oxoisoindolin-2-yl)dihydropyrimidine-2,4(1H,3H)-dione]	B (80%< substrate protein remaining % ≤100%)	B (80%< substrate protein remaining % ≤100%)	A (0% ≤ substrate protein remaining % ≤80%)	B (80%< substrate protein remaining % ≤100%)	B (80%< substrate protein remaining % ≤100%)	B (80%< substrate protein remaining % ≤100%)
Cc1ccsc1N1CCN(Cc2ccc3c(c2)CN(N2CCC(=O)NC2=O)C3=O)CC1 [GT-05084, 1-(5-((4-(3-methylthiophen-2-yl)piperazin-1-yl)methyl)-1-oxoisoindolin-2-yl)dihydropyrimidine-2,4(1H,3H)-dione]	B (80%< substrate protein remaining % ≤100%)	B (80%< substrate protein remaining % ≤100%)	A (0% ≤ substrate protein remaining % ≤80%)	B (80%< substrate protein remaining % ≤100%)	B (80%< substrate protein remaining % ≤100%)	B (80%< substrate protein remaining % ≤100%)
Cc1cc(N2CCN(Cc3ccc4c(c3)CN(N3CCC(=O)NC3=O)C4=O)CC2)cs1 [GT-05087, 1-(5-((4-(5-methylthiophen-3-yl)piperazin-1-yl)methyl)-1-oxoisoindolin-2-yl)dihydropyrimidine-2,4(1H,3H)-dione]	B (80%< substrate protein remaining % ≤100%)	B (80%< substrate protein remaining % ≤100%)	B (80%< substrate protein remaining % ≤100%)	B (80%< substrate protein remaining % ≤100%)	B (80%< substrate protein remaining % ≤100%)	A (0% ≤ substrate protein remaining % ≤80%)
Cc1cccc(N2CCN(Cc3ccc4c(c3)CN(N3CCC(=O)NC3=O)C4=O)CC2)n1 [GT-05125, 1-(5-((4-(6-methylpyridin-2-yl)piperazin-1-yl)methyl)-1-oxoisoindolin-2-yl)dihydropyrimidine-2,4(1H,3H)-dione]	A (0% ≤ substrate protein remaining % ≤80%)	A (0% ≤ substrate protein remaining % ≤80%)	B (80%< substrate protein remaining % ≤100%)	A (0% ≤ substrate protein remaining % ≤80%)	A (0% ≤ substrate protein remaining % ≤80%)	A (0% ≤ substrate protein remaining % ≤80%)
O=C1CCN(N2Cc3cc(CN4CCN(c5cc(Cl)ccn5)CC4)ccc3C2=O)C(=O)N1 [GT-05128, 1-(5-((4-(4-chloropyridin-2-yl)piperazin-1-yl)methyl)-1-oxoisoindolin-2-yl)dihydropyrimidine-2,4(1H,3H)-dione]	A (0% ≤ substrate protein remaining % ≤80%)	A (0% ≤ substrate protein remaining % ≤80%)	A (0% ≤ substrate protein remaining % ≤80%)	A (0% ≤ substrate protein remaining % ≤80%)	A (0% ≤ substrate protein remaining % ≤80%)	A (0% ≤ substrate protein remaining % ≤80%)
O=C1CCN(N2Cc3cc(CN4CCN(c5ncccc5F)CC4)ccc3C2=O)C(=O)N1 [GT-05129, 1-(5-((4-(3-fluoropyridin-2-yl)piperazin-1-yl)methyl)-1-oxoisoindolin-2-yl)dihydropyrimidine-2,4(1H,3H)-dione]	A (0% ≤ substrate protein remaining % ≤80%)	A (0% ≤ substrate protein remaining % ≤80%)	A (0% ≤ substrate protein remaining % ≤80%)	A (0% ≤ substrate protein remaining % ≤80%)	A (0% ≤ substrate protein remaining % ≤80%)	A (0% ≤ substrate protein remaining % ≤80%)
O=C1CCN(N2Cc3cc(CN4CCN(c5cccc(F)n5)CC4)ccc3C2=O)C(=O)N1 [GT-05130, 1-(5-((4-(6-fluoropyridin-2-yl)piperazin-1-yl)methyl)-1-oxoisoindolin-2-yl)dihydropyrimidine-2,4(1H,3H)-dione]	A (0% ≤ substrate protein remaining % ≤80%)	A (0% ≤ substrate protein remaining % ≤80%)	A (0% ≤ substrate protein remaining % ≤80%)	A (0% ≤ substrate protein remaining % ≤80%)	A (0% ≤ substrate protein remaining % ≤80%)	A (0% ≤ substrate protein remaining % ≤80%)
O=C1CCN(N2Cc3cc(CN4CCN(c5ccc(F)cn5)CC4)ccc3C2=O)C(=O)N1 [GT-05131, 1-(5-((4-(5-fluoropyridin-2-yl)piperazin-1-yl)methyl)-1-oxoisoindolin-2-yl)dihydropyrimidine-2,4(1H,3H)-dione]	A (0% ≤ substrate protein remaining % ≤80%)	A (0% ≤ substrate protein remaining % ≤80%)	A (0% ≤ substrate protein remaining % ≤80%)	A (0% ≤ substrate protein remaining % ≤80%)	A (0% ≤ substrate protein remaining % ≤80%)	A (0% ≤ substrate protein remaining % ≤80%)
